{
  "source": "paper PMC6009888",
  "about": "“Design, synthesis, and pharmacological evaluation of 2-amino-5-nitrothiazole derived semicarbazones as dual inhibitors of monoamine oxidase and cholinesterase: effect of the size of aryl binding site” (Journal of Enzyme Inhibition and Medicinal Chemistry, 2017)",
  "origin": "cited, not measured here",
  "key": {"MAO-A [1]": {"system": "MAO-A", "design": "method as in PMID 12553895, PMID 23325700, PMID 27135466", "conditions": "Figure 1, lead semicarbazone inhibitors; ref [47–50]; cited from earlier work"}, "MAO-B [2]": {"system": "MAO-B", "design": "method as in PMID 12553895, PMID 23325700, PMID 27135466", "conditions": "Figure 1, lead semicarbazone inhibitors; ref [47–50]; cited from earlier work"}, "AChE": {"system": "AChE", "design": "method as in PMID 12553895, PMID 23325700, PMID 27135466", "conditions": "Figure 1, lead semicarbazone inhibitors; ref [47–50]; cited from earlier work"}, "MAO-A [3]": {"target": "T1, MAO-A (Rattus norvegicus, UniProt P21396)", "T1 construct": "employing crude rat brain mitochondrial suspension; from tissue; host or cells: brain mitochondria of adult Wistar rats", "T1 sequence (P21396 1-526)": "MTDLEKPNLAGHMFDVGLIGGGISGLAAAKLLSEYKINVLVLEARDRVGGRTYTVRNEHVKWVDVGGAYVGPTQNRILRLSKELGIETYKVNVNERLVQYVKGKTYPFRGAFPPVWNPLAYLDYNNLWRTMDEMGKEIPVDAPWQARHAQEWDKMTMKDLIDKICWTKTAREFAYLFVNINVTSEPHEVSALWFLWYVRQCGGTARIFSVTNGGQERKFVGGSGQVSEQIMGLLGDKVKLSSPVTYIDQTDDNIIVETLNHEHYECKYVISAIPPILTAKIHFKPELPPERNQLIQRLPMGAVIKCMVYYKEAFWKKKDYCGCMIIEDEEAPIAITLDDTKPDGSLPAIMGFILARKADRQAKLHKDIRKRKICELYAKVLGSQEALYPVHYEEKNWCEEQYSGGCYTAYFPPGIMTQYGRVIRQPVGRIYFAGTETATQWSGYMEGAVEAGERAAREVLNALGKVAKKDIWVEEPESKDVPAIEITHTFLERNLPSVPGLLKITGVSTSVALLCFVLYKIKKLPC", "conditions": "reference inhibitors; ref [50]; read-out: MAO-A In vitro IC50 (µM) ± SEM; cited from earlier work"}, "MAO-B [4]": {"target": "T2, MAO-B (Rattus norvegicus, UniProt P19643)", "T2 construct": "employing crude rat brain mitochondrial suspension; from tissue; host or cells: brain mitochondria of adult Wistar rats", "T2 sequence (P19643 1-520)": "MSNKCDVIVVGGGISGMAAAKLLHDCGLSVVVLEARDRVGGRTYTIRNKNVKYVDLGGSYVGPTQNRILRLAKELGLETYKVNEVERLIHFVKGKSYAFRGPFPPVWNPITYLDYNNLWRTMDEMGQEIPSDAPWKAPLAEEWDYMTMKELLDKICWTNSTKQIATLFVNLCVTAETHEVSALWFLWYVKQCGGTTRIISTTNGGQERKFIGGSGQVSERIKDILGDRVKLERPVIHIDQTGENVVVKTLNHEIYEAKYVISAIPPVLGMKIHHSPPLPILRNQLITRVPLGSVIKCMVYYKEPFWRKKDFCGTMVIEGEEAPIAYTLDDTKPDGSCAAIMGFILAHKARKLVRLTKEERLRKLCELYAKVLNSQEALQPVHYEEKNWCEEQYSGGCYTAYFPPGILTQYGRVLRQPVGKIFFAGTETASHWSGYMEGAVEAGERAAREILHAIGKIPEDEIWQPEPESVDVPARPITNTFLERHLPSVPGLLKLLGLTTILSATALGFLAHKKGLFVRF", "design": "method as in PMID 27135466", "conditions": "reference inhibitors; ref [50]; read-out: MAO-B In vitro IC50 (µM) ± SEM; cited from earlier work"}},
  "data": [
    {"smiles": "O=C(N/N=C(\\c1ccccc1)c1ccc(Cl)cc1)Nc1nc2ccc([N+](=O)[O-])cc2s1", "note": "[(i)]", "values": [
      {"measurement": "IC50", "setting": "MAO-A [1]", "result": "0.184 ± 0.001", "unit": "µM"},
      {"measurement": "IC50", "setting": "MAO-B [2]", "result": "0.004 ± 0.001", "unit": "µM"}
    ]},
    {"smiles": "O=C(N/N=C1/C(=O)Nc2ccccc21)Nc1nc2ccc([N+](=O)[O-])cc2s1", "note": "[(v)]", "values": [
      {"measurement": "IC50", "setting": "MAO-A [1]", "result": "5.98 ± 0.534", "unit": "µM"},
      {"measurement": "IC50", "setting": "MAO-B [2]", "result": "2.15 ± 0.095", "unit": "µM"}
    ]},
    {"smiles": "O=C(NN=C(c1ccccc1)c1ccccc1)Nc1ccncc1", "note": "[(iii)]", "values": [
      {"measurement": "IC50", "setting": "AChE", "result": "0.052 ± 0.01", "unit": "µM"}
    ]},
    {"smiles": "O=C(N/N=C/c1c(Cl)cccc1Cl)Nc1ccc2c(c1)OCO2", "note": "[(ii)]", "values": [
      {"measurement": "IC50", "setting": "MAO-A [1]", "result": "4.52 ± 0.032", "unit": "µM"},
      {"measurement": "IC50", "setting": "MAO-B [2]", "result": "0.059 ± 0.002", "unit": "µM"},
      {"measurement": "IC50", "setting": "AChE", "result": "0.0087 ± 0.0002", "unit": "µM"}
    ]},
    {"smiles": "COc1ccc2c(c1)[nH]c1c(C)nccc12", "note": "[HRM, Harmine]", "values": [
      {"measurement": "IC50", "setting": "MAO-A [3]", "result": 3, "unit": "µM"},
      {"measurement": "IC50", "setting": "MAO-B [4]", "result": 7000, "unit": "µM"}
    ]},
    {"smiles": "CNC(=O)N(CCO)/N=C/c1ccc(OCc2ccccc2)cc1", "note": "[(iv)]", "values": [
      {"measurement": "IC50", "setting": "MAO-A [1]", "result": 90, "unit": "µM"},
      {"measurement": "IC50", "setting": "MAO-B [2]", "result": 2.2, "unit": "µM"}
    ]}
  ]
}
